Drawing on publication PMC6917776, “Discovery of a chemical probe for PRDM9” (Nature Communications, 2019), this text covers Activity % and activity for 2 compounds.

Like-named read-outs stand apart in the source and are kept apart here.

The target of test [1] is T1, PRMT4 (Homo sapiens, UniProt Q86X55).
T1 construct: purchased Structural Genomics Consortium (SGC Toronto) in-house methyltransferase panel
T1 sequence (Q86X55 1-608): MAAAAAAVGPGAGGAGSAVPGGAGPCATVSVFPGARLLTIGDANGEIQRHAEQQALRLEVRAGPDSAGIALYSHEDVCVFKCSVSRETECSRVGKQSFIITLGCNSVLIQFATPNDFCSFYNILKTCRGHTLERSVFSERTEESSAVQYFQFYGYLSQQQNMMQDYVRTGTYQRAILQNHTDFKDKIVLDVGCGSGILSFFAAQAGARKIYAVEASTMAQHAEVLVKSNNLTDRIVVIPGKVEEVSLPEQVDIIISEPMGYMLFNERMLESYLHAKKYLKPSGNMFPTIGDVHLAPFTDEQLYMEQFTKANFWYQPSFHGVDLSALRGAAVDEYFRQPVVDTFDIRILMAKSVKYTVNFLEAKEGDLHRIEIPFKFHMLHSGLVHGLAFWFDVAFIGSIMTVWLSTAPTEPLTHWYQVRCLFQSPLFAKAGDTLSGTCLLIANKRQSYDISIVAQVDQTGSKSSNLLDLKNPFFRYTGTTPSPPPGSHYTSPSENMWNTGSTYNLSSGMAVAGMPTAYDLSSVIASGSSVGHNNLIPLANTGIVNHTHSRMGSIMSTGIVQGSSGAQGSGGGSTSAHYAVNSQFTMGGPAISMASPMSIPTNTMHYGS
The test can be described thus: Methyltransferase selectivity assay (SPA). It is filed as biochemical.

In test [2] the target is T2, NSD1 (Homo sapiens, UniProt Q96L73).
T2 construct: purchased Structural Genomics Consortium (SGC Toronto) in-house methyltransferase panel
T2 sequence (Q96L73 whole entry): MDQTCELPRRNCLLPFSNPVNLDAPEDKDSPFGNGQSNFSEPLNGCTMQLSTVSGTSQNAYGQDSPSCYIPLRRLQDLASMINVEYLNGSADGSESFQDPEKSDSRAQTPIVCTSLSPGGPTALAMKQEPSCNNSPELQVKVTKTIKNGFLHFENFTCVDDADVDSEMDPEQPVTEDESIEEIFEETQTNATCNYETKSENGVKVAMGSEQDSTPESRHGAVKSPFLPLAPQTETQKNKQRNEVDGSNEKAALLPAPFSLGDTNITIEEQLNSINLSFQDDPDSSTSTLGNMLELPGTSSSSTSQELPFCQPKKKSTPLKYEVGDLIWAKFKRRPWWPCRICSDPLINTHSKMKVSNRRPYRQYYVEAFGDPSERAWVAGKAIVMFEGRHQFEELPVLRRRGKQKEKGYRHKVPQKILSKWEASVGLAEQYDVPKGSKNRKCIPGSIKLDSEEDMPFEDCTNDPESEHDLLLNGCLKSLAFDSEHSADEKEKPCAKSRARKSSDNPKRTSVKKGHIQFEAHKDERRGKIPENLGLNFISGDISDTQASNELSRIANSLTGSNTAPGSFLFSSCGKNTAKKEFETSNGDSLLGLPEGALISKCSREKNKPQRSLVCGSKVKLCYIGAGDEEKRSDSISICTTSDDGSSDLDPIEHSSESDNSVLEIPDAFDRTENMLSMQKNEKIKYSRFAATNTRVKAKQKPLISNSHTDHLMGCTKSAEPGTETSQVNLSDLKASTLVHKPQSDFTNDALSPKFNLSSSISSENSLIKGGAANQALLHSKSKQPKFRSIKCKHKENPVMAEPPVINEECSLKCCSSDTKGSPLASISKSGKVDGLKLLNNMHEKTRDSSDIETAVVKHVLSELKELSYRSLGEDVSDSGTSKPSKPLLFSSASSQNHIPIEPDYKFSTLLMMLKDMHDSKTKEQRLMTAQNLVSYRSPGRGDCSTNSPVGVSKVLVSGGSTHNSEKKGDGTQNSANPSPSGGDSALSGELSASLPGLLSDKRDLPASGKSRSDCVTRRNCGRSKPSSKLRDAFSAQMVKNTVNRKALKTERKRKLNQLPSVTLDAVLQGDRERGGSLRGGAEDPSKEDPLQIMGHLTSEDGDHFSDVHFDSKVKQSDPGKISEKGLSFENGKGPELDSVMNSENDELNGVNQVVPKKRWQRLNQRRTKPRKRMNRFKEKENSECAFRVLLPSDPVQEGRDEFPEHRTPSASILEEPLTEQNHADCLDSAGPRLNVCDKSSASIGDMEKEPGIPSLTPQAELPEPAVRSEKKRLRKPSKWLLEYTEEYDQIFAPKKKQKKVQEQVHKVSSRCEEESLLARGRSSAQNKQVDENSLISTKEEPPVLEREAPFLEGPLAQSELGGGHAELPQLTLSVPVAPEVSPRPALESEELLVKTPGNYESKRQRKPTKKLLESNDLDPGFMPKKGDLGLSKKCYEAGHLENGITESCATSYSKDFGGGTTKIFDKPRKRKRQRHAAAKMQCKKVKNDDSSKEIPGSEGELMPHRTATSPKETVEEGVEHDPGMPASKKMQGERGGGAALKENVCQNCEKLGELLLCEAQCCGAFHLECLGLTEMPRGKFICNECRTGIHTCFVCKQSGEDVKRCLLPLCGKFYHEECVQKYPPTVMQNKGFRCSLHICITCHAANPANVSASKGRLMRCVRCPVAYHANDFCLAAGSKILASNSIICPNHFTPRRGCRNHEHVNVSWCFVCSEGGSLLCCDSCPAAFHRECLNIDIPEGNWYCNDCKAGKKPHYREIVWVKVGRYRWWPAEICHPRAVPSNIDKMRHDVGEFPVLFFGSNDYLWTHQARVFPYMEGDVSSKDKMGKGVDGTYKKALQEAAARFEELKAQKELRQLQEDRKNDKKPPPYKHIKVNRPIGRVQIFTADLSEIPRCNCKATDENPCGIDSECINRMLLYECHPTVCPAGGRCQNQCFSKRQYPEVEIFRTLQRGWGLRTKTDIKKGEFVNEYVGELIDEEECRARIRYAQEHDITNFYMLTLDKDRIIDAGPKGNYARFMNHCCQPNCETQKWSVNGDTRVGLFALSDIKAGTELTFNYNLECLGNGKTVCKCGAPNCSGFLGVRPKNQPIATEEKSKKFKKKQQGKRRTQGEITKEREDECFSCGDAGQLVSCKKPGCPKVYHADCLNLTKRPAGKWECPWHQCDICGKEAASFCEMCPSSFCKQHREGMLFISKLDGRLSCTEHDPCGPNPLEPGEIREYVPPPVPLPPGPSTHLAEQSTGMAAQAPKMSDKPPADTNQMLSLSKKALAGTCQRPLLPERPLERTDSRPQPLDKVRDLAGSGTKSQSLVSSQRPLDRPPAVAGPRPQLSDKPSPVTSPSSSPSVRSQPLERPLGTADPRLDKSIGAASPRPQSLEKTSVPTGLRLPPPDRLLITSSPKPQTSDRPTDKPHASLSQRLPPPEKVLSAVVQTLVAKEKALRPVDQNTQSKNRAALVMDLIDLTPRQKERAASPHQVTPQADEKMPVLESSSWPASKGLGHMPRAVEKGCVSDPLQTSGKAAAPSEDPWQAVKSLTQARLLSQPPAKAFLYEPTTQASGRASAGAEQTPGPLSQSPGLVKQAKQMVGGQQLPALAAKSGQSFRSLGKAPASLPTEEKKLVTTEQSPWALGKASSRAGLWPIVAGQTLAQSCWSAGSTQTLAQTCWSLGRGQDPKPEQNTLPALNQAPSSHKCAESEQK
The test can be described thus: Methyltransferase selectivity assay (filter-based, nucleosome substrate). It counts as biochemical. The method, then: Selectivity against methyltransferases were determined as described previously. Details of the assays are described in the supplementary methods.
Methyltransferase selectivity assay1
The effect of chemical probes and negative controls on the methyltransferase activities of protein, DNA and RNA methyltransferases was tested by radiometric assays using 3H-SAM. […]
The CPM in the absence of compound or enzyme was defined as 100% activity and background (0%), respectively, for each dataset. […]
For proteins which were tested with nucleosome as substrate such as DOT1L, NSD1, NSD2, NSD3, and ASH1L, or unbiotinylated Poly(2′-deoxyinosinic-2′-deoxycytidylic acid) (Cat# 81349-500UG, Sigma Aldrich) such as DNMT3A/3L, and DNMT3B/3L, a filter-based assay was used. In this assay, a trichloroacetic acid (TCA) protein precipitation protocol was employed. A 10 µL reaction mixture was incubated at 23°C for 1 h, followed by addition of 50 µL of 10% TCA. The mixture was transferred to filter plates (Millipore, Billerica, MA, USA) that were centrifuged at 2000 rpm (Allegra X-15R; Beckman Coulter, Brea, CA, USA) for 2 min. Samples were washed twice with 10% TCA and once with ethanol (180 µL), and centrifuged. After drying, 100 µL MicroScint-O (Perkin Elmer) was added to each well and the plates were centrifuged to remove the liquid. A 70 µL volume of MicroScint-O was added and the CPM was measured with a TopCount plate reader.

[3] abbreviates: 1µM compound, Exp1, Exp2, read-out: Activity %.
The mark [4] stands for this setting: 10µM compound, Exp1, Exp2, 10 µM.
Setting [5] is: 10µM compound, Exp1, Exp2, read-out: Activity %.

Take `COc1cc(OC)cc(-c2noc(N3CCN(C)C4(CCN(c5ccnc(C)c5)CC4)C3)n2)c1` [MRK-740]: the Activity % in test [1] (1µM compound, Exp1, Exp2, 1 µM) is recorded as 98%; in test [1] (setting [4]), 99%; in test [2] (1µM compound, Exp1, Exp2, 1 µM), 97%; in test [2] (setting [4]) it was 98%. Moreover, the activity at 1 µM in test [1] (setting [3]) came out at 101%; in test [2] (setting [3]), 96%. Also, the activity at 10 µM in test [1] (setting [5]) amounted to 96%; in test [2] (setting [5]), 106%.
Regarding `COc1cc(OC)cc(-c2noc(N3CCN(C)C4(CCN(c5ccccc5)CC4)C3)n2)c1` [MRK-740 -NC], the activity at 1 µM in test [1] (1µM compound, Exp1, Exp2) amounted to 108%; in test [2] (1µM compound, Exp1, Exp2) it was 103%. Besides, the Activity % stood at 89% in test [1] (1µM compound, Exp1, Exp2, 1 µM); 89% in test [1] (setting [4]); 99% in test [2] (setting [4]). The activity at 10 µM came out at 87% in test [1] (10µM compound, Exp1, Exp2) and 100% in test [2] (10µM compound, Exp1, Exp2).
